In brackets after ≈: the same amount, converted by molar mass. Read-outs that look alike come from different tables or passages of the source.

One data set has as its system Candida isolates. In kind it is cell-based, Candida spp.
The test system of data set [1] is C. parapsilosis. Description: Vitek and EUCAST microdilution susceptibility. In kind it is cell-based, Candida parapsilosis. The conditions noted are these: Lodderomyces parapsilosis. For orientation: Broth dilution looks for growth in wells or tubes with falling amounts of substance.
The subject of a further data set is McLDM strains. The data set is described as follows: EUCAST MIC, S. cerevisiae overexpressing M. circinelloides LDM, resistance phenotypes. In kind it is cell-based, Saccharomyces cerevisiae.
Data set [2] concerns Aspergillus spp. isolates. The data set is described as follows: Gradient strip susceptibility (Liofilchem). Format: cell-based. To be noted: for isolates with in vitro high MIC values: first isolate per species and patient.
Data set [3] has as its system Phaeoacremonium parasiticum. The data set is described as follows: Antifungal susceptibility testing. In kind it is cell-based. As to the method:
Results: Cultures for bacteria were sterile. Culture on Sabouraud was positive after 5 days of incubation, showing slow growing and initially white colonies. […] Its identification was performed by sequencing the internal transcribed spacer (ITS) region of ribosomal DNA, being the isolate identified as Phaeoacremonium parasiticum (100% homology).

The test system of data set [4] is C. parapsilosis. The data set is described as follows: Candidemia Netherlands, MIC distributions against EUCAST ECOFF. Format: cell-based, Candida parapsilosis.
Another data set deals with R. delemar 99–880. The data set is described as follows: CLSI M38 in vitro susceptibility. The conditions noted are these: Rhizopus delemar, read-out: MIC at 100% inhibition of growth. Format: cell-based, Rhizopus delemar. The procedure:
Methods & Materials: In vitro susceptibility was conducted by the CLSI M38 method using a clinical isolate of Rhizopus delemar (a common cause of mucormycosis). ICR mice were immunosuppressed with cyclophosphamide and cortisone acetate on days −2, +3, and +8, relative to infection with intratracheally instilled R. delemar. […] Mice survival through Day +21 served as the primary endpoint.

A further data set has as its system C. glabrata. Description: Candidemia Netherlands, MIC distributions against EUCAST ECOFF. Format: cell-based, Candida glabrata.
Data set [5] has as its system Rasamsonia argillacea species complex. Description: Antifungal susceptibility testing. To be noted: sputum isolate of a CF patient. In kind it is cell-based.
Another data set deals with A. niger complex. Description: EUCAST E.Def 9.3.2 susceptibility, CPA isolates. In kind it is cell-based, Aspergillus niger complex. To be noted: n = 7, ECOFFs.
Data set [6] is described as follows: Triazole drug levels in ABPA patients with asthma. In kind it is in vivo, human. To be noted: 452 patients, Oct 2009 to March 2021. An excerpt: Materials & Methods: This was a retrospective single-centre cohort study evaluating longitudinal outcomes in non-cystic fibrosis (CF) ABPA patients with underlying chronic lung disease (asthma), and description of treatment approaches. Statistical Analysis System (SAS) programming was used for data integration from multiple hospital electronic systems, for patient identification and data analysis. Criteria for inclusion were patients with a background of asthma, serum Total IgE >1000 IU/mL and a positive Aspergillus IgE, with or without a positive culture for A. fumigatus from a respiratory sample. Data collected included demographics, lung function severity, disease activity serological markers (Aspergillus IgE, Aspergillus IgG, Total IgE) and triazole levels. In this study the impact of fungal therapy on disease outcomes was assessed.

Data set [7] has as its system Parathyridaria percutanea. The data set is described as follows: In vitro antifungal susceptibility. In kind it is cell-based.
For data set [8], the system named is azole-resistant A. fumigatus SS clinical strains. The data set is described as follows: EUCAST E.DEF 9.3.2. In kind it is cell-based. The conditions noted are these: Aspergillus fumigatus.
The subject of the next data set is A. fumigatus isolates. Description: AFST by EUCAST method and direct inoculation of spore suspensions.
For data set [9], the system named is clinical Trichophyton spp. isolates. Description: Checkerboard microdilution based on EUCAST. Format: cell-based. To be noted: for MIC: Trichophyton, read-out: geometric mean MIC, drug alone. The procedure:
Materials & Methods: The combination has been tested against 9 terbinafine-susceptible and 7 terbinafine-resistant clinical Trichophyton spp. isolates from India. In vitro interactions were evaluated by a microdilution checkerboard technique based on the EUCAST reference method for antifungal susceptibility testing. The mode of interaction between terbinafine and itraconazole was determined by the fractional inhibitory concentration index (FICI). The FICI was interpreted as FICI ≤ 0.5 = synergy, FICI > 0.5–4 = no interaction, and FICI > 4.0 = antagonism.

The subject of another data set is McLDM-F5-CPR. Description: microbe, parasite or virus in culture. In kind it is cell-based, Saccharomyces cerevisiae AD2Δgal. To be noted: Saccharomyces cerevisiae, read-out: mean MIC.
Data set [10] relates to C. auris III.8 and TAC1/MRR1 deletion strains. In kind it is cell-based, Candida auris.
For another data set, the system named is Candida catenulata. Description: CLSI M44 agar diffusion. Format: cell-based.
Data set [11] relates to Scedosporium apiospermum (SA) mature biofilms. Description: XTT biofilm damage assay. Format: cell-based. As to the method: (§1) Materials & Methods: 10^5 cfu/mL of FS (n = 3) and SA (n = 3) BF-producing strains were incubated in RPMI at 37 °C for 48 h. PMN were isolated from healthy volunteers by dextran sedimentation/ficoll centrifugation. BF were incubated with PMN at effector-to-target ratio 5:1 alone or in combination with L-AMB (FS: 0.25/2/32 mg/L; SA: 0.25/1/16 mg/L) or VRC (FS: 8/64 mg/L; SA: 0.5/32 mg/L) at 37 °C/5% CO2 for 24 h. Antifungal activity was assessed by XTT reduction assay of metabolic activity. […] The % damage of the PMN+drug treatment was compared to that of PMN or drug alone by ANOVA (n = 8, p < 0.05).
(In general: Tetrazolium dyes change colour on reduction, which living cells bring about.)

Data set [12] concerns Fusarium solani (FS) mature biofilms. The data set is described as follows: XTT biofilm damage assay. In kind it is cell-based. The procedure:
as §1

Another data set relates to Candida lipolytica. The data set is described as follows: CLSI M44 agar diffusion. In kind it is cell-based. A general note: Agar diffusion results depend on both activity and mobility in agar.
Another data set concerns Candida sp. In kind it is cell-based.
Data set [13] has as its system Candida albicans and C. glabrata. Format: cell-based, Candida spp. The conditions noted are these: 20 women with RVVC.
A further data set concerns C. blankii. Description: Vitek 2 fungal susceptibility card. Format: cell-based, Candida blankii.
The mark [14] stands for this setting: strain from pleural fluid of an ICU patient, no mutations in cyp51A.
The mark [15] stands for this setting: two strains from a cystic fibrosis patient, TR34/L98H.
[16] abbreviates: 7 terbinafine-resistant isolates.
Setting [17] is: 9 terbinafine-susceptible isolates.
The mark [18] stands for this setting: III.8 tac1a/tac1b strain vs parental.
Setting [19] is: III.8 tac1a/tac1b/mrr1 strain vs parental.
The mark [20] stands for this setting: […], discs 25 μg fluconazole, 1 μg voriconazole.

Experimental for A. fumigatus isolates: Material/methods: We used two methods for AFST: In the standard “EUCAST method”, AFST was performed using spores from a maturated colony. In the “direct inoculation method”, AFST was performed using the spore suspensions that were either stored or sent from other laboratories directly without a subculturing phase. Three groups of isolates were analyzed. […] Spore suspensions were prepared and AFST was performed daily after storing the isolates for 4 days at room temperature, and after 4 days for spore suspensions stored at 2–4 °C and at 28 °C. All measurements were performed in triplicate. Group II, retrospective analysis: 50 isolates that were sent to our laboratory as spore suspensions were tested using the direct inoculation method and stored at −70 °C in glycerol broth. The stored isolates were revived and AFST was repeated using the EUCAST method. Group III: prospective analysis: 30 isolates that were sent to our laboratory as spore suspensions were tested using the direct inoculation method and simultaneously using the EUCAST methods without storage at −70 °C. MICs based on the EUCAST and direct inoculation methods were compared.

With `C[C@@H]1[C@H](O)[C@@H](C)/C=C/C=C/C=C/C=C/C=C/C=C/C=C/[C@H](O[C@@H]2O[C@H](C)[C@@H](O)[C@H](N)[C@@H]2O)C[C@@H]2O[C@](O)(C[C@@H](O)C[C@@H](O)[C@H](O)CC[C@@H](O)C[C@@H](O)CC(=O)O[C@H]1C)C[C@H](O)[C@H]2C(=O)O` [amphotericin B], the susceptibility result in the data set on Candida isolates is “susceptible”. The MIC against C. parapsilosis [1] was 0.5 µg/mL (≈ 0.541 µM); in [2] (gradient strips, ten isolates (5 A. terreus, 3 A. flavus, 1 A. fumigatus, 1 A. nidulans)), greater than 32 µg/mL; in the data set on R. delemar 99–880 it was 0.06 µg/mL (≈ 0.0649 µM). The “MICs compared to AD2Δ” value with McLDM strains is “not affected”. The “isolates with in vitro high MIC values” in data set [2] turned out to be 19.6%. Besides, in data set [3], the “minimal inhibitory concentrations (MIC), in words” value was “higher”. Besides, the “isolates within the wildtype distribution range” value was determined as 92.9% with C. parapsilosis [4] and 98.6% in the data set on C. glabrata. Further, the “minimal inhibitory concentrations (MIC)” value in [5] was “high minimal inhibitory concentrations”.
In the case of `CCC(C)n1ncn(-c2ccc(N3CCN(c4ccc(OCC5COC(Cn6cncn6)(c6ccc(Cl)cc6Cl)O5)cc4)CC3)cc2)c1=O` (centres unmarked) [itraconazole], the Non-wild type isolates with A. niger complex was 29%. The “MICs compared to AD2Δ” value in the data set with McLDM strains was “not affected”. Also, the “median trough drug level” value in data set [6] is on record as 0.76 mg/L. Moreover, the “in vitro susceptibility category” value in data set [7] is “resistance”. The MIC in [8] (setting [14]) is greater than 8 µg/mL; in data set [8] (setting [15]) it was greater than 8 µg/mL; against A. fumigatus isolates (Aspergillus fumigatus, Group II, 5 strains, direct inoculation method), 2 to 4 µg/mL (≈ 2.83 to 5.67 µM); against A. fumigatus isolates (Aspergillus fumigatus, Group II, the same 5 strains, EUCAST method), 0.5 to 1 µg/mL (≈ 0.709 to 1.42 µM); in data set [9] (setting [16]) it was 0.19 µg/mL; in [9] (setting [17]) it was 0.3 µg/mL. Besides, the “MIC range, drug alone” value in [9] (setting [16]) lay in the range of 0.0625 to 0.5 µg/mL; in data set [9] (setting [17]), 0.125 to 0.5 µg/mL.
On to `C[C@@H](c1ncncc1F)[C@](O)(Cn1cncn1)c1ccc(F)cc1F` [voriconazole], for which the Non-wild type isolates in the data set on A. niger complex is reported as 29%. Moreover, the MIC in the data set on McLDM-F5-CPR is 4 µg/mL (≈ 11.5 µM); in [10] (III.8 tac1a/tac1b strain), 1 µg/mL (≈ 2.86 µM); in data set [10] (III.8 tac1a/tac1b/mrr1 strain) it was 0.5 µg/mL (≈ 1.43 µM); in data set [10] (parental III.8 isolate) it was 2 µg/mL (≈ 5.73 µM); in [8] (setting [14]), 1 µg/mL (≈ 2.86 µM); in data set [8] (setting [15]), 4 µg/mL (≈ 11.5 µM). Besides, the MIC in the data set on A. fumigatus isolates (Aspergillus fumigatus, Group I, one resistant isolate) was 2 to 4 µg/mL (≈ 5.73 to 11.5 µM); with A. fumigatus isolates (Group III, one isolate, EUCAST methods), 2 µg/mL (≈ 5.73 µM); with A. fumigatus isolates (Group III, the same isolate, direct inoculation) it was 1 µg/mL (≈ 2.86 µM). The figures for the MIC decrease in data set [10] (III.8 mrr1 strain vs parental), in data set [10] (setting [18]) and in data set [10] (setting [19]) were 2 fold, 2 fold and 4 fold, respectively. Moreover, in data set [2], the “isolates with in vitro high MIC values” is listed as 1.9%. For the same compound, in data set [6], the “median trough drug level” value turned out to be 0.82 mg/L. The results for the resistant isolates in the data set with Candida catenulata and with Candida lipolytica were 19% and 58%, respectively. Further, the MIC50 in data set [11] (Scedosporium apiospermum, read-out: BF MIC50 (≥50% BF damage), XTT, 24 h, 37 °C) was 32 µg/mL; in [12] (Fusarium solani, read-out: BF MIC50 (≥50% BF damage), XTT, 24 h, 37 °C), greater than 256 µg/mL. In addition, the BF damage is 69.5 ± 3% in data set [11] (VRC 32 mg/L + PMN 5:1) and 61 ± 4% in data set [11] (VRC 32 mg/L alone). In addition, in data set [12] (VRC 64 mg/L, PMN 5:1), the “interaction of drug+PMN vs drug alone” value was “antagonism”. Besides, the “minimal inhibitory concentrations (MIC), in words” value in [3] is listed as “low”. Further, the “minimal inhibitory concentrations (MIC)” value in data set [5] is given as “high minimal inhibitory concentrations”.
Consider `OC(Cn1cncn1)(Cn1cncn1)c1ccc(F)cc1F` [fluconazole], for which the results for the resistant isolates in the data set on Candida isolates, with Candida catenulata (setting [20]) and with Candida lipolytica (setting [20]) were 6.4%, 19% and 67%, respectively. Further, the “Susceptibility to fluconazole (share of isolates)” value in the data set on Candida sp. (2019) was 66%; in the data set with Candida sp. (full 12 month period in 2020) it was 82%; in the data set with Candida sp. (overall, entire period reviewed), 74%; with Candida sp. (to date in January–April 2020) it was 100%. The MIC against C. parapsilosis [1] was found to be 8 µg/mL (≈ 26.1 µM); with McLDM-F5-CPR it was 128 µg/mL (≈ 418 µM); in data set [10] (III.8 tac1a/tac1b/mrr1 strain) it was 128 µg/mL (≈ 418 µM); in data set [10] (parental III.8 isolate), 512 µg/mL (≈ 1670 µM). For the same compound, the MIC decrease in [10] (III.8 mrr1 strain vs parental) was 2 fold; in data set [10] (setting [18]) it was 2 fold; in data set [10] (setting [19]) it was 4 fold. Further, the “in vitro resistant pathogens” value in [13] is 45%. Moreover, in the data set with C. blankii, the susceptibility result is reported as “resistant”. For the same compound, in data set [7], the “in vitro susceptibility category” value is on record as “resistance”. For the same compound, the “isolates within the wildtype distribution range” value with C. parapsilosis [4] was 92.5%; in the data set on C. glabrata, 83.6%.

(Values after paper PMC8624133, “10th Trends in Medical Mycology Held on 8 to 11 October 2021, Aberdeen, Scotland, Organized by the European Confederation of Medical Mycology (ECMM)” (Journal of Fungi, 2021).)
